Assay results reported in patent EP0532706B1, “REDUCTION OF CARDIOVASCULAR VESSEL OCCLUSIONS WITH ASCORBATE AND LIPOPROTEIN (a) BINDING INHIBITORS” (priority 1990, dated 1991).

Experiments:
in vivo = assay type: in vivo, guinea pig
Procedure: Blood was drawn by ear puncture from the anesthetized animals and collected into EDTA containing tubes at the beginning, after 10 days, and after 3 weeks, when the animals were sacrificed. Plasma was stored at -80°C until analyzed. Lp(a) was detected in the plasma of the guinea pigs by use of SDS-polyacrylamide gels according to Neville ((1971) J. Biol. Chem. 246:6328-6334) followed by Western blotting according to Beisiegel, et al. ((1982) J. Biol. Chem. 257:13150-13156). Forty »l of plasma and 20 mg of arterial wall homogenate were applied in delipidated form per lane of the gel. The immunodetection of apo(a) was performed using a polyclonal anti-human apo(a) antibody (Immuno, Vienna, Austria) followed by a rabbit anti-sheep antibody (Sigma) and the gold-conjugated goat anti-rabbit antibody with subsequent silver enhancement (Bio-Rad). The determinations of cholesterol and triglycerides were done at California Veterinary Diagnostics (Sacramento) using the enzyme assay of Boehringer Mannheim. The amount of plasma ascorbate was determined by the dinitrophenylhydrazine method according to Schaffer, et al. ((1955) J. Biol. Chem. 212:59).
To confirm the data obtained in Example 1, a second guinea pig experiment was conducted, using 33 male animals with a mean weight of 550 g and an approximate age of 5 months. One group of 8 animals served as a control and received 40 mg ascorbate/kg BW/d (group A). To induce hypoascorbemia 16 animals were fed 2 mg ascorbate/kg BW/d (group B). Group A and half of the animals of group B (progression sub-group) were sacrificed after 5 weeks as described above. Half of group B was kept for 2 more weeks, receiving daily intraperitoneal injection of 1.3 g Na-ascorbate/kg BW/d as a daily intra peritoneal injection with the intention to reduce the extent of atherosclerosis lesions. After this regression period these animals also were sacrificed.

atherosclerotic lesions = experiment: Example 2: area of aortic atherosclerotic lesions in guinea pig groups; assay type: in vivo
Source text: At necropsy the animals were anesthetized with metophase and exsanguinated. The aorta, heart and various other organs were taken for biochemical and histological analysis. The aorta was excised, the adventitial fat carefully removed, and the vessel was opened longitudinally. Subsequently the aorta was placed on a dark metric paper and a color slide was taken. The picture was projected and thereby magnified by an approximate factor of 10. The circumference of the ascending aorta, the aortic arch and thoracic aorta, as well as the atherosclerotic lesions in this area, were marked and measured with a digitalized planimetry system. The degree of atherosclerosis was expressed by the ratio of plaque area in relation to the total aortic area defined.
To confirm the data obtained in Example 1, a second guinea pig experiment was conducted, using 33 male animals with a mean weight of 550 g and an approximate age of 5 months. One group of 8 animals served as a control and received 40 mg ascorbate/kg BW/d (group A). To induce hypoascorbemia 16 animals were fed 2 mg ascorbate/kg BW/d (group B). Group A and half of the animals of group B (progression sub-group) were sacrificed after 5 weeks as described above. […]

[1] = Regression (after Scurvy): 2 more weeks with daily intraperitoneal 1.3 g Na-ascorbate/kg BW/d
[2] = Scurvy (progress), group B: 2 mg ascorbate/kg BW/d, 5 weeks

concentration at 336 h (in vivo; guinea pig, in vivo, ip, 1300 mg/kg/day) [ng/mL] | concentration at 840 h (in vivo; guinea pig, in vivo, 2 mg/kg/day) [ng/mL] | concentration at 840 h (in vivo; guinea pig, in vivo, 40 mg/kg/day) [ng/mL] | Structure (SMILES) | Plasma Cholesterol (in vivo; [1]) [mg/dL] | Atheroscl. Lesion (Percent of Aorta Thorac. Surface) (atherosclerotic lesions; [1]) | Plasma Cholesterol (in vivo; Control, group A: 40 mg ascorbate/kg BW/d, 5 weeks) [mg/dL] | Plasma Cholesterol (in vivo; [2]) [mg/dL] | Atheroscl. Lesion (Percent of Aorta Thorac. Surface) (atherosclerotic lesions; [2])
20600 | – | – | O=C1O[C@H]([C@@H](O)CO)C(O)=C1O [Na-ascorbate] | 33 | 19% of Aorta Thorac. Surface | – | – | –
– | 3010 | 5030 | O=C1O[C@H]([C@@H](O)CO)C(O)=C1O [ascorbate] | – | – | 39 | 54 | 25% of Aorta Thorac. Surface
